# Read-outs that look alike come from different tables or passages of the source.
# Legend:
# BMG-1 cells [1] = tested on: BMG-1 cells
# Method: (§2) The cytotoxic effect of DMA and TBZ on exponentially growing tumor cells BMG-1 was studied as a function of time. Cells were treated for 1 h with the ligands and allowed to grow for 24, 48 and 72 hours. The MTT assay was performed at the specified time points. […] These experiments were done thrice in six sets. Exponentially growing cells were used in these experiments and cell survival was studied using Macrocolony assay.
# (§3) Cells were washed with HBSS and harvested using 0.05% trypsin. […] Colonies were fixed in methanol and stained with 1% crystal violet. Proliferation Kinetics BMG-1 cells were seeded at 7000-8000 cells/ cm^2, and their proliferation kinetics was measured at 24-h intervals by trypsinizinig and counting total cells per flask using a hemocytometer.
# Hek cells = assay: Macrocolony assay (cell survival assay) with 5 Gy irradiation; format: cell-based, human; details: 10uM drug added 1h before irradiation; for viability at 10 µM: Homo sapiens, HEK293, light or radiation study, read-out: Survival friction
# Method: Both cell lines in triplicate were washed with HBSS, plated and grown for four days before harvesting using 0.05% trypsin, Depending on the treatments, 200 to 1200 cells were plated in 90 mm petri dishes and incubated at 37°C in 5% CO2 humidified atmosphere for 8 to 10 days. Colonies were fixed with methanol and stained with 1 % crystal violet Colonies containing more than 50 cells were counted.
# Exponentially growing cells, 24 h after plating were irradiated at room temperature in growth medium with a Co-60 source (Gamma cell, AECL, Canada) at a dose rate of 0.5 to 1.2 Gy/min. Concentration of 10µm drug was added 1h before irradiation. Following this procedure, cells were grown for various time intervals to study growth kinetics and plated for Macrocolony assay as shown in the following Tables 3 & 4 and figure 1 & 2 Table 3
# in vitro = details: bmg-1 cells
# Method: as §2, §3
# [2] = tested on: human brain malignant glioma cell line BMG-1; assay: MTT microtiter plate tetrazolium cytotoxicity assay; format: cell-based; details: cells treated 1 h
# Method: (§1) The cytotoxic effect of DMA and TBZ on exponentially growing tumor cells BMG-1 was studied as a function of time. Cells were treated for 1 h with the ligands and allowed to grow for 24, 48 and 72 hours. The MTT assay was performed at the specified time points. […] There seemed to be no effect on the metabolic status of the treated cells. However, strikingly the metabolic activity of the treated cells seemed to be enhanced as compared to the untreated control cells. To further support our results we have performed cell survival assay at 0.1uM, 10uM and 100uM concentration of drug having control as untreated cell. These experiments were done thrice in six sets. Exponentially growing cells were used in these experiments and cell survival was studied using Macrocolony assay. The plating efficiency was nearly 77%. […] The increase in cell number as a function of time for the control as well as the treated cells remained same. The radioprotective effect of the newly synthesized ligands were studied spectroscopically as well as in human brain glioma cell line BMG-1. The spectroscopic studies done included UV-Vis sepctroscopy, Fluorescence spectroscopy, Anisotropy measurements and Lifetime measurements and Thermal denaturation studies. Calf thymus DNA was chosen as the DNA material and ligands were incubated with the DNA and irradiated at different doses of radiation. […] At the cellular level also, the ligands were incubated with the cells and cell survival assay was performed to study the radioprotective effect of the new ligands in comparison to the parent molecule Hoechst 33342.
# The cytotoxicity was determined using the MTT microtiter plate tetrazolium cytotoxicity assay (MTA). The human brain malignant glioma cell line BMG-1 was used. The cytotoxicity assay was performed using 96-well microtiter plates. 3000 cells/ well were plated and treatment of the ligands was done 24 hours post plating. […] 150 µl of DMSO was added and the plate was read at 540 nm with reference at 630 nm.
# BMG-1 cells [3] = assay: cells; details: Homo sapiens
# Method: as §2, §3
# Calf thymus DNA = assay: Thermal denaturation / spectroscopic studies of ligand-DNA complex in presence and absence of radiation; format: binding
# Method: as §1
# BMG-1 cells [4] = assay: Proliferation kinetics (growth kinetics); format: cell-based, human; details: 100µM, exponentially growing cells
# Method: The cytotoxic effect of DMA and TBZ on exponentially growing tumor cells BMG-1 was studied as a function of time. Cells were treated for 1 h with the ligands and allowed to grow for 24, 48 and 72 hours. The MTT assay was performed at the specified time points. […] There seemed to be no effect on the metabolic status of the treated cells. However, strikingly the metabolic activity of the treated cells seemed to be enhanced as compared to the untreated control cells. To further support our results we have performed cell survival assay at 0.1uM, 10uM and 100uM concentration of drug having control as untreated cell. These experiments were done thrice in six sets. Exponentially growing cells were used in these experiments and cell survival was studied using Macrocolony assay. The plating efficiency was nearly 77%. […] The increase in cell number as a function of time for the control as well as the treated cells remained same. […] The spectroscopic studies done included UV-Vis sepctroscopy, Fluorescence spectroscopy, Anisotropy measurements and Lifetime measurements and Thermal denaturation studies. […]
# Cells were washed with HBSS and harvested using 0.05% trypsin. […] Proliferation Kinetics BMG-1 cells were seeded at 7000-8000 cells/ cm^2, and their proliferation kinetics was measured at 24-h intervals by trypsinizinig and counting total cells per flask using a hemocytometer. […]
# [5] = Table 3: BMG-1, 5 Gy irradiation, 10uM drug added 1h before irradiation
# [6] = light or radiation study, read-out: Survival fraction, 1uM, no irradiation
# [7] = light or radiation study, read-out: Survival fraction, 10uM, no irradiation
# [8] = light or radiation study, read-out: Survival fraction, 100uM, no irradiation
# [9] = light or radiation study, read-out: Survival fraction, Table 3: BMG-1, 5 Gy irradiation, 10uM drug added 1h before irradiation
# [10] = read-out: Survival fraction, 1uM + 5 Gy
# [11] = read-out: Survival fraction, 10uM + 2Gy
# [12] = read-out: Survival fraction, 10uM + 5 Gy (Table 2)
# [13] = read-out: Survival fraction, 10uM + 10 Gy
# [14] = read-out: Survival fraction, 100uM + 5 Gy
# [15] = Ratio [ligand]/[DNA] 0.01, Dose 0 Gy
# [16] = Ratio [ligand]/[DNA] 0.01, Dose 100 Gy
# [17] = Ratio [ligand]/[DNA] 0.1, Dose 0 Gy
# [18] = Ratio [ligand]/[DNA] 0.1, Dose 100 Gy
SMILES,Plating efficiency % (BMG-1 cells [1]; 1uM + 5 Gy),"Plating efficiency % (BMG-1 cells [1]; 1uM, no irradiation)",Plating efficiency % (BMG-1 cells [1]; 10uM + 2Gy),Plating efficiency % (BMG-1 cells [1]; 10uM + 5 Gy (Table 2)),Plating efficiency % (BMG-1 cells [1]; 10uM + 10 Gy),"Plating efficiency % (BMG-1 cells [1]; 10uM, no irradiation)",Plating efficiency % (BMG-1 cells [1]; 100uM + 5 Gy),"Plating efficiency % (BMG-1 cells [1]; 100uM, no irradiation)",Plating efficiency % (BMG-1 cells [1]; [5]),Plating efficiency % (Hek cells),viability at 10 µM (Hek cells),viability at 100 µM (in vitro),"cytotoxicity ([2]; 100µM, MTT up to 72 hours)",viability at 1 µM (BMG-1 cells [3]; [6]),viability at 10 µM (BMG-1 cells [3]; [7]),viability at 100 µM (BMG-1 cells [3]; [8]),viability at 10 µM (BMG-1 cells [3]; [9]),viability at 1 µM (BMG-1 cells [3]; [10]),viability at 10 µM (BMG-1 cells [3]; [11]),viability at 10 µM (BMG-1 cells [3]; [12]),further results
"COc1ccc(-c2nc3cc(-c4nc5cc(N6CCN(C)CC6)ccc5[nH]4)ccc3[nH]2)cc1OC [DMA, 5-(4-methylpiperazin-1-yl)-2-[2'-(3,4-dimethoxyphenyl)-5'-benzimidazolyl]benzimidazole]",22%,65%,63%,27%,4%,67%,25%,64%,27%,27%,50%,73%,do not show any cytotoxicity,97%,100%,95%,40%,32%,93%,40%,cytotoxicity at 10 µM (in vitro): 3%; viability at 10 µM (BMG-1 cells [3]; [13]): 6%; viability at 100 µM (BMG-1 cells [3]; [14]): 38%
"CN1CCN(c2ccc3nc(-c4ccc5nc(-c6ccc(O)cc6)[nH]c5c4)[nH]c3c2)CC1 [Hoechst 33258, reference compound]",,,,,,,,,,,,,,,,,,,,,Tm (Calf thymus DNA; [15]): 71.5 °C; Tm (Calf thymus DNA; [16]): 67.5 °C; Tm (Calf thymus DNA; [17]): 81.7 °C; Tm (Calf thymus DNA; [18]): 79.3 °C
"CCOc1ccc(-c2nc3ccc(-c4nc5ccc(N6CCN(C)CC6)cc5[nH]4)cc3[nH]2)cc1 [Hoechst 33342, reference compound]",,,,,,,,,20%,20%,10%,,,,,,10%,,,,"effect on cell survival (BMG-1 cells [1]; low concentrations, no irradiation): do not seem to have considerable effect on cell survival; viability at 100 µM (in vitro; cell survival, 100µM, no irradiation): 10%; viability at 10 µM (in vitro; surviving fraction, 10µM, no irradiation): 45%; cytotoxicity ([2]; 10µM, MTT at 24, 48 and 72 hours): highly cytotoxic"
"COc1cc(-c2nc3cc(-c4nc5cc(-c6nc7cc(N8CCN(C)CC8)ccc7[nH]6)ccc5[nH]4)ccc3[nH]2)ccc1O [TBZ, 5-(4-methylpiperazine-1-yl)-2-[2'-{2""-(4-hydroxy-3-methoxyphenyl)-5""-benzimidazolyl}-5'-benzimidazolyl]benzimidazole]",21%,73%,60%,20%,3.5%,71%,18%,69%,20%,25%,48%,92%,do not show any cytotoxicity,107%,105%,102%,30%,31%,89%,30%,"Tm (Calf thymus DNA; [15]): 74.3 °C; Tm (Calf thymus DNA; [16]): 75 °C; Tm (Calf thymus DNA; [17]): 77.7 °C; Tm (Calf thymus DNA; [18]): 81.5 °C; growth kinetics of the treated cells (BMG-1 cells [4]): did not differ from the untreated cells; effect on growth (BMG-1 cells [1]; 10µM, no irradiation): increase in growth; radioprotection in comparison to Hoechst 33342 (BMG-1 cells [1]; conclusion from BMG-1 and Hek cell lines): better radioprotectors; effect on growth (BMG-1 cells [1]; low concentrations (upto 10µM), no irradiation): slight stimulatory effect on growth; cytotoxicity at 100 µM (in vitro): 9%; viability at 10 µM (BMG-1 cells [3]; [13]): 5%; viability at 100 µM (BMG-1 cells [3]; [14]): 26%"
